The text below walks through data of publication PMC11334105, “Contribution of Noncovalent Recognition and Reactivity to the Optimization of Covalent Inhibitors: A Case Study on KRas^G12C” (ACS Chemical Biology, 2024).

Series [1] concerns the target T1, KRAS^G12C (Homo sapiens, UniProt P01116, G12C). As to the kind of experiment: MANT-GDP nucleotide exchange assay (SOS1, GppNHp). The format is biochemical. As for the experimental part:
The reaction was stopped by adding MgCl2 to a final concentration of 10 mM, then incubated at 20 °C for 30 min. The unbound MANT-GDP was removed using the NAP-5 column equilibrated with nucleotide exchange buffer (40 mM HEPES-NaOH (pH 7.5), 50 mM NaCl, 10 mM MgCl2, 2 mM Dithiothreitol DTT).

Series [2] relates to H1792. As to the kind of experiment: Cell proliferation assay (MTT), KRAS^G12C expressing cell. As to conditions: Homo sapiens, NCI-H1792, 72 h, read-out: IC50 anti-proliferative activity.
Series [3] deals with MiaPaca2. The description is as above. As to conditions: Homo sapiens, MIA PaCa-2, 72 h, read-out: IC50 anti-proliferative activity.
In series [4] the test system is H358. Described as above. As to conditions: Homo sapiens, NCI-H358, 72 h, read-out: IC50 anti-proliferative activity.
The target in series [5] is KRAS^wt (Homo sapiens, UniProt P01116). The series can be described thus: MANT-GDP nucleotide exchange assay against wild type.
Description: In the experiments, we used the GTP analogue, GppNHp, which cannot be hydrolyzed by Ras.
After the incubation, the MANT-GDP KRAS-inhibitor mixtures were loaded into a black 384-well microplate in the presence or absence of the different inhibitor molecules in various concentrations. The nucleotide exchange reaction was initiated by adding a 100-fold molar excess of GppNHp (catalog no.: G0635, Sigma-Aldrich), a nonhydrolyzable GTP analog, and the SOS1 exchange domain (catalog no.: GE02, Cytoskeleton, Inc.) protein in 0.2 μM final concentration. The change in fluorescence intensity was measured every 30 s in RT for 60 min on an EnvSpire plate reader (PerkinElmer, Inc.). The measured values were fitted to a single exponential function by using GraphPad Prism 10 software. The derived rates were normalized to the RAS-SOS1 minus RAS-only samples from which the IC50 values were calculated from three independent experiments with each inhibitor using GraphPad Prism 10 software.
The nature of series [6]: HPLC-based GSH reactivity and stability assay. The format is physicochemical. As to conditions: for half-life at 250 μM: 5 mM glutathione, PBS pH 7.4, corrected for aqueous degradation, mean ± SD, n = 2, read-out: t1/2 GSH (converted); for experimental ΔG^#(GSH): free energy barrier calculated from t1/2 and GSH^– concentration. As to the method:
The cysteine reactivity of the compounds was first assessed in a surrogate kinetic assay.[25],[26] Glutathione (GSH), a cysteine surrogate, was used in a large excess to ensure quasi-first-order reaction kinetics.
The sample was eluted with gradient elution using eluent A (0.1% FA in H2O) and eluent B (0.1% FA in ACN). The column temperature was always kept at 30 °C; the injection volume was 20 μL, the flow rate was set to 1.5 mL/min, and a Reprospher C18 (5 μm, 100 mm × 3 mm) column was used along with the following gradient. […] The AUC (area under the curve) values were determined via the integration of HPLC chromatograms and then corrected with the internal standard. The fragments’ AUC values were subjected to ordinary least-squares (OLS) linear regression, and to compute the important parameters (kinetic rate constant and half-life time), an Excel sheet was applied. The data are expressed as means of duplicate determinations. The kinetic rate constant for the degradation and corrected GSH reactivity were calculated as follows. The reaction half-life for pseudo-first-order reactions (t1/2) is ln 2/k, where k is the reaction rate. In the case of competing reactions (reaction with GSH and degradation), the apparent reaction rate is kapp = kdeg + kGSH. When half-lives are measured experimentally, t1/2(app) = ln 2/(kapp) = ln 2/(kdeg + kGSH). In our case, the corrected kdeg and kapp (regarding blank and GSH-containing samples, respectively) can be calculated by the linear regression of the measured kinetic data points. The corrected kGSH is calculated as kapp – kdeg, and finally, the half-life is determined using the equation t1/2 = ln 2/k.

Series [7] has as its target T1, KRAS^G12C. The series can be described thus: LC-MS occupancy measurements (KI and kinact determination). The format is binding. As to conditions: for kobs: 5 μM KRASG12C, duplicated experiments; for experimental ΔG^# (KRAS^G12C): free energy barrier calculated from kinact; for experimental ΔGbind: obtained as RT ln(KI) with KI in M units.
Series [8] deals with KRAS^G12C. As to conditions: published value ref 46; cited from earlier work.
Setting [9] is: KRAS^G12C, 60 min incubation with inhibitor, mean ± SD, n = 3, read-out: IC50 inhibition of nucleotide exchange.
Where [10] appears, read: PBS buffer with 5 mM glutathione (GSH).
Setting [11] is: fit of kobs vs concentration, MS occupancy, mean ± SD, n = 2.
[12] abbreviates: fit of kobs vs concentration, MS occupancy, mean ± SD, n = 2, read-out: KI.

Read-outs that look alike come from different tables or passages of the source. A value given as a limit tells only on which side of the number the result lay.

For the compound `C=CC(=O)N1CCN(c2ncnc3cc(-c4c(O)cccc4F)c(Cl)cc23)CC1` [1a, 1-(4-(6-Chloro-7-(2-fluoro-6-hydroxyphenyl)quinazolin-4-yl)piperazin-1-yl)prop-2-en-1-one], the IC50 – broadly, the midpoint of a concentration-inhibition curve – in series [1] (setting [9]) stood at 0.827 ± 0.137 µM; in series [2], 16.2 µM; in series [3], 1.8 µM; in series [4], 2.3 µM.

As for `C=CC(=O)N1CCN(c2nc(OCC3CCCN3C)nc3cc(-c4c(O)cccc4F)c(Cl)cc23)CC1` (centres unmarked) [1b, 1-(4-(6-Chloro-7-(2-fluoro-6-hydroxyphenyl)-2-((1-methylpyrrolidin-2-yl)methoxy)quinazolin-4-yl)piperazin-1-yl)prop-2-en-1-one], the IC50 in series [1] (setting [9]) came out at 0.52 ± 0.108 µM; in series [5], 177 µM; in series [2], 30.1 µM; in series [3], 0.53 µM; in series [4], 1.1 µM.

As to `O=C(CCl)N1CCN(c2ncnc3cc(-c4c(O)cccc4F)c(Cl)cc23)CC1` [2a, 2-Chloro-1-{4-[6-chloro-7-(2-fluoro-6-hydroxyphenyl)-quinazolin-4-il]piperazine-1-yl}ethane-1-one], the IC50 was determined as 0.305 ± 0.04 µM in series [1] (setting [9]), 2.9 µM in series [2], 3.1 µM in series [3] and 2.7 µM in series [4].

Regarding `CN1CCCC1COc1nc(N2CCN(C(=O)CCl)CC2)c2cc(Cl)c(-c3c(O)cccc3F)cc2n1` (centres unmarked) [2b, 2-Chloro-1-(4-(6-chloro-7-(2-fluoro-6-hydroxyphenyl)-2-((1-methylpyrrolidin-2-yl)methoxy)quinazolin-4-yl)piperazin-1-yl)ethan-1-one], the IC50 in series [1] (setting [9]) turned out to be 0.642 ± 0.115 µM; in series [2], 1.8 µM; in series [3], 3.2 µM; in series [4] it was 1.8 µM.

For the compound `O=C(N1CCN(c2ncnc3cc(-c4c(O)cccc4F)c(Cl)cc23)CC1)n1ccnc1` [3a, (4-(6-Chloro-7-(2-fluoro-6-hydroxyphenyl)quinazolin-4-yl)piperazin-1-yl)(1H-imidazol-1-yl)methanone], the half-life at 250 μM in series [6] (setting [10]) was 35 ± 11 h. Moreover, the “experimental ΔG^#(GSH)” value in series [6] is 82 ± 0.84 kJ/mol. Further, the IC50 in series [1] (setting [9]) is 67.4 ± 11.3 µM; in series [2] it was 17.9 µM; in series [3], 20.4 µM; in series [4], 27.4 µM. For the same compound, the kinact/KI (as a rule, the maximal inactivation rate divided by the concentration that gives half of it) in series [7] worked out at 9.8 ± 4.7 M⁻¹ s⁻¹. Besides, the kobs is 0.00014 ± 0.00003 s⁻¹ in series [7] (20 μM inhibitor), 0.00021 ± 0.00005 s⁻¹ in series [7] (40 μM inhibitor), 0.00033 ± 0.00004 s⁻¹ in series [7] (80 μM inhibitor) and 0.00033 ± 0.00006 s⁻¹ in series [7] (160 μM inhibitor). In series [7] (setting [11]), the kinact is 0.4 ± 0.1 0.001 s^–1. Besides, the Ki (usually the dissociation constant of the complex between target and ligand, obtained from inhibition or displacement) in series [7] (setting [12]) is 40.9 ± 16.7 µM. Besides, the “experimental ΔG^# (KRAS^G12C)” value in series [7] is 92 ± 0.84 kJ/mol. Further, the “experimental ΔGbind” value in series [7] was “–6.0 ± 0.4 kcal/mol”.

Consider `CN1CCCC1COc1nc(N2CCN(C(=O)n3ccnc3)CC2)c2cc(Cl)c(-c3c(O)cccc3F)cc2n1` (centres unmarked) [3b, (4-(6-Chloro-7-(2-fluoro-6-hydroxyphenyl)-2-((1-methylpyrrolidin-2-yl)methoxy)quinazolin-4-yl)piperazin-1-yl)(1H-imidazol-1-yl)methanone], for which, in series [6] (setting [10]), the half-life at 250 μM was 40 ± 18 h. Besides, the “experimental ΔG^#(GSH)” value in series [6] is 82.4 ± 1.3 kJ/mol. In addition, the IC50 came to 243 ± 52.4 µM in series [1] (setting [9]), 17.7 µM in series [2], 8.8 µM in series [3] and 9.9 µM in series [4]. Further, in series [7], the kinact/KI was 3.1 ± 0.7 M⁻¹ s⁻¹. Besides, the kobs in series [7] (20 μM inhibitor) is 0.00005 ± 0.00001 s⁻¹; in series [7] (40 μM inhibitor), 0.0006 ± 0.00001 s⁻¹; in series [7] (80 μM inhibitor), 0.00009 ± 0.00001 s⁻¹; in series [7] (160 μM inhibitor), 0.00010 ± 0.00001 s⁻¹. The kinact in series [7] (setting [11]) is recorded as 0.13 ± 0.01 0.001 s^–1. Besides, in series [7] (setting [12]), the Ki was 42.2 ± 9.9 µM. For the same compound, the “experimental ΔG^# (KRAS^G12C)” value in series [7] is 95 ± 0 kJ/mol. In addition, the “experimental ΔGbind” value in series [7] is “–6.0 ± 0.1 kcal/mol”.

Turning to `O=C(C1CN1)N1CCN(c2ncnc3cc(-c4c(O)cccc4F)c(Cl)cc23)CC1` (centres unmarked) [4a, Aziridin-2-yl(4-(6-chloro-7-(2-fluoro-6-hydroxyphenyl)quinazolin-4-yl)piperazin-1-yl)methanone], the half-life at 250 μM in series [6] (buffer) is greater than 72 h. Further, in series [6], the “experimental ΔG^#(GSH)” value was greater than 84.1 kJ/mol. The IC50 in series [1] came to 198 ± 39 µM; in series [2], 22.6 µM; in series [3] it was 19.8 µM; in series [4], 27.1 µM. In series [7], this compound returned a Ki of 22.2 ± 1.8 µM. In addition, the kobs in series [7] (20 μM inhibitor) is 0.00004 ± 0.00001 s⁻¹; in series [7] (40 μM inhibitor), 0.0006 ± 0.00001 s⁻¹; in series [7] (80 μM inhibitor), 0.00007 ± 0.00001 s⁻¹; in series [7] (160 μM inhibitor) it was 0.00008 ± 0.00001 s⁻¹. The “experimental ΔG^# (KRAS^G12C)” value in series [7] is 95.8 ± 0 kJ/mol. In addition, in series [7], the “experimental ΔGbind” value is on record as “–6.3 ± 0.1 kcal/mol”.

On to `CN1CCCC1COc1nc(N2CCN(C(=O)C3CN3)CC2)c2cc(Cl)c(-c3c(O)cccc3F)cc2n1` (centres unmarked) [4b, Aziridin-2-yl(4-(6-chloro-7-(2-fluoro-6-hydroxyphenyl)-2-((1-methylpyrrolidin-2-yl)methoxy)quinazolin-4-yl)piperazin-1-yl)methanone], for which the half-life at 250 μM in series [6] (buffer) was greater than 72 h. The “experimental ΔG^#(GSH)” value in series [6] was greater than 84.1 kJ/mol. The IC50 was found to be 84.4 ± 18.9 µM in series [1], 30.8 µM in series [2], 48.2 µM in series [3] and 90 µM in series [4]. The Ki in series [7] worked out at 112 ± 30.1 µM. For the same compound, the kobs in series [7] (20 μM inhibitor) worked out at 0.00029 ± 0.00018 s⁻¹; in series [7] (40 μM inhibitor), 0.00044 ± 0.00004 s⁻¹; in series [7] (80 μM inhibitor) it was 0.00072 ± 0.00018 s⁻¹; in series [7] (160 μM inhibitor), 0.00104 ± 0.00002 s⁻¹. The “experimental ΔG^# (KRAS^G12C)” value in series [7] is 88.7 ± 0.42 kJ/mol. For the same compound, the “experimental ΔGbind” value in series [7] is “–5.4 ± 0.2 kcal/mol”.

Turning to `C=CC(=O)N1CCN(c2ncnc3c(F)c(-c4c(O)cccc4F)c(Cl)cc23)CC1` [ARS-1620, reference compound], the IC50 in series [2] is 10.2 µM; in series [3], 0.14 µM; in series [4], 0.31 µM.

With `C=CC(=O)N1CCN(c2nc(OC[C@@H]3CCCN3C)nc3c(F)c(-c4nc(N)cc(C)c4C(F)(F)F)c(Cl)cc23)[C@@H](C)C1` [Divarasib], the kinact/KI in series [8] was 710,000 M^–1 s^–1.
